In patent publication EP4768484A1, “HETEROCYCLIC FUSED RING COMPOUND, AND COMPOSITION AND USE THEREOF” (Shenzhen TargetRx, Inc., priority 2023, dated 2025) one finds IC50 data, which are given here for twelve compounds.

Common to all, as to type: cell-based
The target in one assay is T1, Ba/F3 BCR-ABL1 WT (Homo sapiens, UniProt P00519+P11274).
T1 construct: BCR (N-terminal fusion partner of the oncoprotein); expressed in transfected cells; host or cells: Ba/F3 (lentiviral transduction, monoclonal line)
The experiment in a line: Cell growth inhibitory activity assay (CellTiter-Glo), Ba/F3 BCR-ABL1 WT cells. The following applies: 72 h, CTG cell viability. The gist of the method:
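Ba/F3 parental cells or Ba/F3 lines lentivirally transduced with WT or mutant BCR-ABL1, seeded overnight then exposed to serially diluted compound 72 h at 37 °C, 5% CO2. Viability by CellTiter-Glo ATP luminescence with a T0 plate; 0.5% DMSO controls; IC50 from four-parameter nonlinear fit.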

A further assay deals with T2, Ba/F3 BCR-ABL1 T315I (Homo sapiens, UniProt P00519+P11274, T315I).
T2 construct: BCR (N-terminal fusion partner of the oncoprotein); expressed in transfected cells; host or cells: Ba/F3 (lentiviral transduction, monoclonal line)
The experiment in a line: Cell growth inhibitory activity assay (CellTiter-Glo), Ba/F3 BCR-ABL1 T315I cells. The settings on record: 72 h, CTG cell viability. In short, it runs like this: (§1)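 Luminescent ATP read-out (CellTiter-Glo) after 72 h compound exposure at 37 °C, 5% CO2. Cells: monoclonal Ba/F3 lentivirally engineered with mutant BCR-ABL1, or parental Ba/F3. A T0 plate read the day after seeding; 0.5% DMSO wells as uninhibited growth control. IC50 via variable-slope logistic fit of % inhibition.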

The test system of the next assay is K562 cells. Briefly: Cell growth inhibitory activity assay (CellTiter-Glo), K562 cells. The following applies: Homo sapiens, 72 h, CTG cell viability. The gist of the method:
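K562 cells in logarithmic growth were counted, diluted and plated in 96-well plates, with medium-only blanks and a separate T0 plate read by CTG the following day. After overnight incubation, graded compound concentrations were added for 72 h, with 0.5% DMSO wells as growth controls. Luminescence was read on a Biotek cytation3.0, and IC50 came from nonlinear fitting in GraphPad Prism 7.0.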
For orientation: In ATP-based viability assays light output follows the ATP content of the culture.

Another assay deals with T3, Ba/F3 BCR-ABL1 T315M (Homo sapiens, UniProt P00519+P11274, T315M).
T3 construct: BCR (N-terminal fusion partner of the oncoprotein); expressed in transfected cells; host or cells: Ba/F3 (lentiviral transduction, monoclonal line)
Briefly: Cell growth inhibitory activity assay (CellTiter-Glo), Ba/F3 BCR-ABL1 T315M cells. The following applies: 72 h, CTG cell viability. Here is the method: In this assay, the Celltiter-Glo (CTG) kit provided by Promega was used, and it is a homogeneous cell viability assay method. The cell viability of cultured cells was measured by quantifying ATP. K562 cells were purchased from Nanjing Kebai, product number CBP60529; Ba/F3 parental cells were purchased from RIKEN BRC, product number RCB0805; other cells containing BCR-ABL1 WT, BCR-ABL1 T315I, BCR-ABL1 T315M, BCR-ABL1 Y253H/E255K, BCR-ABL1 E255V/T3151, BCR-ABL1 A424T, BCR-ABL1 A337V, BCR-ABL1 P465S, BCR-ABL1 V468F, and BCR-ABL1 I502L were all monoclonal engineered cell lines obtained by transducting Ba/F3 parental cells with the lentivirus plasmids containing WT or corresponding mutated BCR-ABL1.
The steps of cell viability assay are as follows: • a) Cells in logarithmic growth phase were collected. Cell suspension was prepared and the cells were counted. Concentration of the cells was calculated. • b) The cell suspension was diluted to the required concentration and then added to the middle wells of a 96-well plate, and PBS was added to the edge wells. The wells with no cells and only culture medium were used as blank controls. • c) In addition to the cell plate used for compound analysis, another 96-well plate was prepared as a T0 plate, and 3-6 blank wells and 3-6 cell wells were added. The next day, CTG was used to test the cell viability as the T0 viability value of the cells. • d) The cell plate was incubated at 37 °C in a 5% CO2 incubator overnight. • e) The next day, each concentration of a compound subjected to a gradient dilution was added, and the cell plate was incubated at 37 °C in a 5% CO2 incubator for 72 h. The wells with no compound and only 0.5% DMSO were used as positive controls for cell growth. • f) CTG reagent (CellTiter-Glo kit) was added according to the manufacturer's instructions to test the cell viability value. • g) The plate was read using Biotek cytation3.0 microplate reader and the data were exported. • h) IC50 was calculated using GraphPad Prism 7.0 software.
The IC50 (half-maximal inhibitory concentration) of the compound was obtained using the following nonlinear fitting formula: Y = Bottom + (Top−Bottom)/(1+10^(∧)((LogIC50−X)*HillSlope)) [formula] • X: Log value of the compound concentration • Y: Inhibition rate (% inhibition) • Top: Maximum response • Bottom: Baseline response • HillSlope: Slope of the curve
The formula for calculating cell inhibition rate (inhibition rate %) was: [formula]

For another assay, the system named is Ba/F3 parental cells. Briefly: Cell growth inhibitory activity assay (CellTiter-Glo), Ba/F3 parental cells. The following applies: Mus musculus, BaF3, 72 h, CTG cell viability, read-out: IC50 Ba/F3 BCR-ABL1 Parental. In short, it runs like this: as §1

Consider `CC(=O)N[C@H]1CCC2c3cc(C(=O)Nc4ccc(OC(F)(F)Cl)cc4)cc(-c4cnc5c(c4)C(=O)N(C)C5)c3N(C(C)C)C21` (stereo partly drawn) [T-11-A, (3S)-3-acetamido-N-(4-(chlorodifluoromethoxy)phenyl)-4-isopropyl-5-(6-methyl-5-oxo-6,7-dihydro-5H-pyrrolo[3,4-b]pyridin-3-yl)-1,2,3,3a,4,8b-hexahydrocyclopenta[b]indole-7-carboxamide], for which the IC50 was 50 to 1000 nM against Ba/F3 BCR-ABL1 WT; over 1000 nM on Ba/F3 BCR-ABL1 T315I; 50 to 1000 nM in the assay with K562 cells; over 1000 nM against Ba/F3 BCR-ABL1 T315M; over 1000 nM in the assay on Ba/F3 parental cells.

Turning to `CC(=O)N[C@@H]1CCC2c3cc(C(=O)Nc4ccc(OC(F)(F)Cl)cc4)cc(-c4cnc5c(c4)C(=O)N(C)C5)c3N(C(C)C)C21` (stereo partly drawn) [T-11-B, (3R)-3-acetamido-N-(4-(chlorodifluoromethoxy)phenyl)-4-isopropyl-5-(6-methyl-5-oxo-6,7-dihydro-5H-pyrrolo[3,4-b]pyridin-3-yl)-1,2,3,3a,4,8b-hexahydrocyclopenta[b]indole-7-carboxamide], the IC50 against Ba/F3 BCR-ABL1 WT was at most 5 nM; on Ba/F3 BCR-ABL1 T315I, 5 to 50 nM; in the assay with K562 cells it was at most 5 nM; at Ba/F3 BCR-ABL1 T315M, 50 to 1000 nM; with Ba/F3 parental cells it was over 1000 nM.

For `CC(=O)N[C@H]1CCC2c3cc(C(=O)Nc4ccc(OC(F)(F)Cl)cc4)cc(-c4cnccn4)c3N(C(C)C)C21` (stereo partly drawn) [T-12-A, (3S)-3-acetamido-N-(4-(chlorodifluoromethoxy)phenyl)-4-isopropyl-5-(pyrazin-2-yl)-1,2,3,3a,4,8b-hexahydrocyclopenta[b]indole-7-carboxamide], the IC50 against Ba/F3 BCR-ABL1 WT was 50 to 1000 nM; at Ba/F3 BCR-ABL1 T315I it was over 1000 nM; in the assay with K562 cells it was 50 to 1000 nM; at Ba/F3 BCR-ABL1 T315M, over 1000 nM; in the assay on Ba/F3 parental cells it was over 1000 nM.

Consider `CC(=O)N[C@@H]1CCC2c3cc(C(=O)Nc4ccc(OC(F)(F)Cl)cc4)cc(-c4cnccn4)c3N(C(C)C)C21` (stereo partly drawn) [T-12-B, (3R)-3-acetamido-N-(4-(chlorodifluoromethoxy)phenyl)-4-isopropyl-5-(pyrazin-2-yl)-1,2,3,3a,4,8b-hexahvdrocyclopentalblindole-7-carboxamide], for which the IC50 on Ba/F3 BCR-ABL1 WT was at most 5 nM; against Ba/F3 BCR-ABL1 T315I, 5 to 50 nM; in the assay with K562 cells, at most 5 nM; on Ba/F3 BCR-ABL1 T315M, 50 to 1000 nM; in the assay with Ba/F3 parental cells, over 1000 nM.

For `O=C(Nc1ccc(OC(F)(F)Cl)cc1)c1cc2c(c(-c3cnc4c(c3)-c3nn(-c5ncc(F)cn5)cc3C4)c1)C1(CCCCC1)C(=O)N2` [T-127, N-(4-(chlorodifluoromethoxy)phenyl)-4'-(2-(5-fluoropyrimidin-2-yl)-2,4-dihydropyrazolo[3',4':3,4]cyclopenta[1,2-b]pyridin-7-vl)-2'-oxospiro[cyclohexane-1,3'-indoline]-6'-carboxamide], the IC50 against Ba/F3 BCR-ABL1 WT was at most 5 nM; against Ba/F3 BCR-ABL1 T315I it was at most 5 nM; with K562 cells, at most 5 nM; in the assay with Ba/F3 parental cells it was over 1000 nM.

In the case of `N#Cc1cnc(-n2cc3c(n2)-c2cc(-c4cc(C(=O)Nc5ccc(OC(F)(F)Cl)cc5)cnc4N4CC[C@@H](F)C4)cnc2C3)nc1` [T-128, (R)-N-(4-(chlorodifluoromethoxy)phenyl)-5-(2-(5-cyanopyrimidin-2-yl)-2,4-dihydropyrazolo[3',4':3,4]cyclopenta[1,2-b]pyridin-7-yl)-6-(3-fluoropyrrolidin-1-yl)nicotinamide], the IC50 on Ba/F3 BCR-ABL1 WT is at most 5 nM; at Ba/F3 BCR-ABL1 T315I, at most 5 nM; in the assay with K562 cells, at most 5 nM; with Ba/F3 parental cells, over 1000 nM.

Consider `N#Cc1ccnc(-n2cc3c(n2)-c2cc(-c4cc(C(=O)Nc5ccc(OC(F)(F)Cl)cc5)cnc4N4CC[C@@H](F)C4)cnc2C3)n1` [T-129, (R)-N-(4-(chlorodifluoromethoxy)phenyl)-5-(2-(4-cyanopyrimidin-2-yl)-2,4-dihydropyrazolo[3',4':3,4]cyclopenta[1,2-b]pyridin-7-yl)-6-(3-fluoropyrrolidin-1-yl)nicotinamide], for which the IC50 against Ba/F3 BCR-ABL1 WT was at most 5 nM; at Ba/F3 BCR-ABL1 T315I, at most 5 nM; with K562 cells, at most 5 nM; in the assay on Ba/F3 parental cells, over 1000 nM.

Take `O=C(Nc1ccc(OC(F)(F)Cl)cc1)c1cnc(N2CC[C@@H](F)C2)c(-c2cnc3c(c2)-c2nn(-c4ncc(F)cn4)cc2C3F)c1` (stereo partly drawn) [T-130, N-(4-(chlorodifluoromethoxy)phenyl)-5-(4-fluoro-2-(5-fluoropyrimidin-2-yl)-2,4-dihydropyrazolo[3',4':3,4]cyclopenta[1,2-b]pyridin-7-yl)-6-((R)-3-fluoropyrrolidin-1-yl)nicotinamide]: the IC50 against Ba/F3 BCR-ABL1 WT is at most 5 nM; on Ba/F3 BCR-ABL1 T315I, at most 5 nM; with K562 cells, at most 5 nM; in the assay with Ba/F3 parental cells it was over 1000 nM.

Regarding `O=C(Nc1ccc(OC(F)(F)Cl)cc1)c1cnc(N2CC[C@@H](F)C2)c(-c2cnc3c(c2)-c2c(cnn2-c2ncc(F)cn2)C3F)c1` (stereo partly drawn) [T-131, N-(4-(chlorodifluoromethoxy)phenyl)-5-(4-fluoro-1-(5-fluoropyrimidin-2-yl)-1,4-dihydrepyrazolo[3',4':3,4]cyclopenta[1,2-b]pyridin-7-yl)-6-((R)-3-fluoropyrrolidin-1-yl)nicotinamide], the IC50 against Ba/F3 BCR-ABL1 WT was 50 to 1000 nM; on Ba/F3 BCR-ABL1 T315I it was 50 to 1000 nM; in the assay with K562 cells, 5 to 50 nM; with Ba/F3 parental cells it was over 1000 nM.

For the compound `Nc1nc(N2CC[C@@H](F)C2)c(-c2cnc3c(c2)-c2nn(-c4ncc(F)cn4)cc2C3)cc1C(=O)Nc1ccc(OC(F)(F)Cl)cc1` [T-132, (R)-2-amino-N-(4-(chlorodifluoromethoxy)phenyl)-5-(2-(5-fluoropyrimidin-2-yl)-2,4-dihydropyrazolo[3',4':3,4]cyclopenta[1,2-b]pyridin-7-yl)-6-(3-fluoropyrrolidin-1-yl)nicotinamide], the IC50 at Ba/F3 BCR-ABL1 WT is at most 5 nM; at Ba/F3 BCR-ABL1 T315I, at most 5 nM; with K562 cells it was at most 5 nM; in the assay with Ba/F3 parental cells it was 50 to 1000 nM.

As to `N#Cc1ccnc(-n2cc3c(n2)-c2cc(-c4cc(C(=O)Nc5ccc(OC(F)(F)Cl)cc5)c(N)nc4N4CC[C@@H](F)C4)cnc2C3)n1` [T-133, (R)-2-amino-N-(4-(chlorodifluoromethoxy)phenyl)-5-(2-(4-cvanopyrimidin-2-yl)-2,4-dihydropyrazolo[3',4':3,4]cyclopenta[1,2-b]pyridin-7-yl)-6-(3-fluoropyrrolidin-1-yl)nicotinamide], the IC50 against Ba/F3 BCR-ABL1 WT was at most 5 nM; on Ba/F3 BCR-ABL1 T315I it was at most 5 nM; in the assay with K562 cells it was at most 5 nM; in the assay with Ba/F3 parental cells, over 1000 nM.

As for `N#Cc1cnc(-n2cc3c(n2)-c2cc(-c4cc(C(=O)Nc5ccc(OC(F)(F)Cl)cc5)c(N)nc4N4CC[C@@H](F)C4)cnc2C3)nc1` [T-134, (R)-2-amino-N-(4-(chlorodifluoromethoxy)phenyl)-5-(2-(5-cyanopyrimidin-2-yl)-2,4-dihydropyrazolo[3',4':3,4]cyclooenta[1,2-b]pyridin-7-yl)-6-(3-fluoropyrrolidin-1-yl)nicotinamide], the IC50 is at most 5 nM at Ba/F3 BCR-ABL1 WT, 50 to 1000 nM on Ba/F3 BCR-ABL1 T315I, at most 5 nM in the assay on K562 cells and 50 to 1000 nM in the assay on Ba/F3 parental cells.
